Experimental data reported in patent US20220402900A1, “1,2,4-OXADIAZOL-5-ONE DERIVATIVES FOR THE TREATMENT OF CANCER” (Basilea Pharmaceutica International AG, priority 2019, published 2022).

What was measured:
[1] = test system: TEAD reporter gene activity; experiment: TEAD reporter gene assay (MCF7 TEAD reporter cell line); format: cell-based; conditions: Homo sapiens; TEAD luciferase reporter in MCF7 cells, 24 hours; read-out: IC50 TEAD RGA (converted)
Source text: A TEAD reporter cell line was purchased from BPS Bioscience (cat. no. 60618). It contains the firefly luciferase gene under control of TEAD responsive elements stably integrated into the human breast cancer MCF7 cells. In proliferating cells, a basal level of unphosphorylated YAP/TAZ resides in the nucleus and drives the TEAD-dependent expression of the luciferase reporter. The cells were cultivated as recommended by the supplier. Inhibition of TEAD reporter gene activity by experimental compounds was measured using white, clear-bottom, 96 well cell culture plates (Greiner Bio-One, cat. no. 655098). The cells were seeded at a density of 20,000 cells per well in 100 μL growth medium and the plates were incubated overnight at 37° C. with 5% CO2 prior to treatment. Experimental compounds were serially diluted in DMSO to 200× the desired final concentrations. 0.5 μL aliquots of DMSO or the test samples were then mixed into the wells and the cells were further incubated for 24 hours. Luminescence was then measured on a Synergy 4 reader (BioTek) using the ONE-Glo Luciferase Assay System (Promega, cat. no. E6120) according to the manufacturer's instructions. Relative inhibition values were calculated by normalizing the raw data using DMSO-treated cells (0% inhibition) and wells devoid of cells (100% inhibition). IC50 values were calculated by fitting concentration-response data to a sigmoidal 4-parameter logistic model.

[2] = target: T1, human TEAD2 (amino acids 217-447) (Homo sapiens, UniProt Q15562); experiment: Thermal shift assay (TSA); format: binding; conditions: 3 μM recombinant TEAD2, compound 7 μM, shift vs DMSO control
T1 construct: human TEAD2 (amino acids 217-447); His-tag (N); purchased Proteros biostructures PR-0365; host or cells: E. coli
Experimental: The thermal shift assay (TSA) was utilized to characterize target engagement in vitro based on ligand-dependent thermal stabilization of the protein. N-terminally His-tagged human TEAD2 (amino acids 217-447) expressed and purified from E. coli was purchased from Proteros biostructures (cat no. PR-0365). The melting reactions were performed in white, 96 well qPCR plates (Roche Diagnostics, cat. no. 04 729 692 001) in 20 mM HEPES pH 7, 100 mM NaCl in the presence of 4×SYPRO orange (Sigma, cat. no. S5692). Each well contained 3 μM recombinant TEAD2 and either DMSO (control) or experimental compounds at a final concentration of 7 μM. The total volume was 20 μL and the final DMSO concentration was 1%. The plate was sealed and analyzed in a LightCycler 480 II (Roche Diagnostics) by continuously reading the fluorescence using the 465-580 nm filter set while heating from 25° C. to 95° C. using a linear gradient of 1° C./min. Melting temperatures were determined by numerical differentiation using the LightCycler Thermal Shift Analysis software (Roche Diagnostics). The shifts in melting temperature caused by experimental compounds compared to the control are expressed as ΔTm (Table 2).

T1 sequence (Q15562 217-447): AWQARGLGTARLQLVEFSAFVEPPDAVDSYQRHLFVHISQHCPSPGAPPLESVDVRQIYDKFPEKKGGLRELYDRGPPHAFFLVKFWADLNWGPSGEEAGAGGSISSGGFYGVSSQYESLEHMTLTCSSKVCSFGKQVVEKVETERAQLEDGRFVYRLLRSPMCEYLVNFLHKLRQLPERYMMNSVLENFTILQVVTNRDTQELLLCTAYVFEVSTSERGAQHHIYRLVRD

IC50 [1] [nM]	ΔTm at 7 µM [2] [°C]	SMILES
39	9.9	O=c1[nH]c(-c2cccnc2Nc2ccc(C(F)(F)F)cc2)no1 [Example 1, 3-[2-[4-(trifluoromethyl)anilino]-3-pyridyl]-4H-1,2,4-oxadiazol-5-one]
90	11.5	O=c1[nH]c(-c2nccnc2Nc2ccc(OC(F)(F)F)cc2)no1 [Example 3, 3-[3-[4-(trifluoromethoxy)anilino]pyrazin-2-yl]-4H-1,2,4-oxadiazol-5-one]
85	2	Nc1cnc(Nc2ccc(C(F)(F)F)cc2)c(-c2noc(=O)[nH]2)n1 [Example 4, 3-[6-amino-3-[4-(trifluoromethyl)anilino]pyrazin-2-yl]-4H-1,2,4-oxadiazol-5-one]
117	4.5	COc1cnc(Nc2ccc(C(F)(F)F)cc2)c(-c2noc(=O)[nH]2)n1 [Example 5, 3-[6-methoxy-3-[4-(trifluoromethyl)anilino]pyrazin-2-yl]-4H-1,2,4-oxadiazol-5-one]
499	5	O=c1[nH]c(-c2nc(CO)cnc2Nc2ccc(C(F)(F)F)cc2)no1 [Example 6, 3-[6-(hydroxymethyl)-3-[4-(trifluoromethyl)anilino]pyrazin-2-yl]-4H-1,2,4-oxadiazol-5-one]
2840	0.5	NCCc1cnc(Nc2ccc(C(F)(F)F)cc2)c(-c2noc(=O)[nH]2)n1 [Example 7, 3-[6-(2-aminoethyl)-3-[4-(trifluoromethyl)anilino]pyrazin-2-yl]-4H-1,2,4-oxadiazol-5-one]
1800	7.5	O=c1[nH]c(-c2nccnc2Nc2ccc(OC(F)(F)F)cc2Cl)no1 [Example 8, 3-[3-[2-chloro-4-(trifluoromethoxy)anilino]pyrazin-2-yl]-4H-1,2,4-oxadiazol-5-one]
52	9.2	O=c1[nH]c(-c2ncccc2Nc2ccc(C(F)(F)F)cc2)no1 [Example 9, 3-[3-[4-(trifluoromethyl)anilino]-2-pyridyl]-4H-1,2,4-oxadiazol-5-one]
374	10.1	O=c1[nH]c(-c2cc(C(F)(F)F)cnc2Nc2ccc(C(F)(F)F)cc2)no1 [Example 10, 3-[5-(trifluoromethyl)-2-[4-(trifluoromethyl)anilino]-3-pyridyl]-4H-1,2,4-oxadiazol-5-one]
44	7.5	COc1cnc(-c2noc(=O)[nH]2)c(Nc2ccc(C(F)(F)F)cc2)n1 [Example 12, 3-[5-methoxy-3-[4-(trifluoromethyl)anilino]pyrazin-2-yl]-4H-1,2,4-oxadiazol-5-one]
95	10.3	O=c1[nH]c(-c2c(F)ccnc2Nc2ccc(C(F)(F)F)cc2)no1 [Example 13, 3-[4-fluoro-2-[4-(trifluoromethyl)anilino]-3-pyridyl]-4H-1,2,4-oxadiazol-5-one]
2770	9	O=c1[nH]c(-c2nccnc2Nc2ccc(OCC3CC3)cc2)no1 [Example 14, 3-[3-[4-(cyclopropylmethoxy)anilino]pyrazin-2-yl]-4H-1,2,4-oxadiazol-5-one]
72	11.8	CC(C)(C)c1ccc(Nc2nccnc2-c2noc(=O)[nH]2)cc1 [Example 15, 3-[3-(4-tert-butylanilino)pyrazin-2-yl]-4H-1,2,4-oxadiazol-5-one]
552	11.1	CC(C)c1ccc(Nc2nccnc2-c2noc(=O)[nH]2)cc1 [Example 16, 3-[3-(4-isopropylanilino)pyrazin-2-yl]-4H-1,2,4-oxadiazol-5-one]
708	8.7	CCc1ccc(Nc2nccnc2-c2noc(=O)[nH]2)cc1 [Example 17, 3-[3-(4-ethylanilino)pyrazin-2-yl]-4H-1,2,4-oxadiazol-5-one]
828	2.5	O=c1[nH]c(-c2nccnc2Nc2ccc(-c3nccs3)cc2)no1 [Example 18, 3-[3-(4-thiazol-2-ylanilino)pyrazin-2-yl]-4H-1,2,4-oxadiazol-5-one]

IC50 [1] [nM]	ΔTm at 7 µM [2] [°C]	SMILES
131	10.1	O=c1[nH]c(-c2nccnc2Nc2ccc(C(F)(F)F)c(F)c2)no1 [Example 19, 3-[3-[3-fluoro-4-(trifluoromethyl)anilino]pyrazin-2-yl]-4H-1,2,4-oxadiazol-5-one]
236	10.6	O=c1[nH]c(-c2nccnc2Nc2ccc(C(F)(F)F)c(Cl)c2)no1 [Example 20, 3-[3-[3-chloro-4-(trifluoromethyl)anilino]pyrazin-2-yl]-4H-1,2,4-oxadiazol-5-one]
102	2.1	COc1cc(C(F)(F)F)ccc1Nc1nccnc1-c1noc(=O)[nH]1 [Example 21, 3-[3-[2-methoxy-4-(trifluoromethyl)anilino]pyrazin-2-yl]-4H-1,2,4-oxadiazol-5-one]
70	6.1	COc1cc(Nc2nccnc2-c2noc(=O)[nH]2)ccc1C(F)(F)F [Example 22, 3-[3-[3-methoxy-4-(trifluoromethyl)anilino]pyrazin-2-yl]-4H-1,2,4-oxadiazol-5-one]
64	1.6	O=c1[nH]c(-c2nccnc2Nc2cnc(C(F)(F)F)nc2)no1 [Example 23, 3-[3-[[2-(trifluoromethyl)pyrimidin-5-yl]amino]pyrazin-2-yl]-4H-1,2,4-oxadiazol-5-one]
340	3.4	O=c1[nH]c(-c2nccnc2Nc2ccc(C(F)(F)F)nc2)no1 [Example 24, 3-[3-[[6-(trifluoromethyl)-3-pyridyl]amino]pyrazin-2-yl]-4H-1,2,4-oxadiazol-5-one]
117	9.6	O=c1[nH]c(-c2nccnc2Nc2ccc(C(F)(F)F)cc2F)no1 [Example 25]
433	9.2	Cc1cc(C)c(-c2noc(=O)[nH]2)c(Nc2ccc(C(F)(F)F)cc2)n1 [Example 26, 3-[4,6-dimethyl-2-[4-(trifluoromethyl)anilino]-3-pyridyl]-4H-1,2,4-oxadiazol-5-one]
1540	0.4	O=C(Nc1ccc(Nc2nccnc2-c2noc(=O)[nH]2)cc1)C1CCC1 [Example 27, N-[4-[[3-(5-oxo-4H-1,2,4-oxadiazol-3-yl)pyrazin-2-yl]amino]phenyl]cyclobutanecarboxamide]
557	6.1	Cc1ccnc(Nc2ccc(C(F)(F)F)cc2)c1-c1noc(=O)[nH]1 [Example 28, 3-[4-methyl-2-[4-(trifluoromethyl)anilino]-3-pyridyl]-4H-1,2,4-oxadiazol-5-one]
503	7.3	O=c1[nH]c(-c2nccnc2Nc2ccc(-c3ccccc3)cc2)no1 [Example 29, 3-[3-(4-phenylanilino)pyrazin-2-yl]-4H-1,2,4-oxadiazol-5-one]
4910	5.3	O=c1[nH]c(-c2nccnc2Nc2ccc(Cl)c(C(F)(F)F)c2)no1 [Example 30, 3-[3-[4-chloro-3-(trifluoromethyl)anilino]pyrazin-2-yl]-4H-1,2,4-oxadiazol-5-one]
35	10.5	Cc1cnc(-c2noc(=O)[nH]2)c(Nc2ccc(C(F)(F)F)cc2)n1 [Example 31, 3-[5-methyl-3-[4-(trifluoromethyl)anilino]pyrazin-2-yl]-4H-1,2,4-oxadiazol-5-one]
28	10.2	Cc1cnc(Nc2ccc(C(F)(F)F)cc2)c(-c2noc(=O)[nH]2)n1 [Example 32, 3-[6-methyl-3-[4-(trifluoromethyl)anilino]pyrazin-2-yl]-4H-1,2,4-oxadiazol-5-one]
127	3.6	Nc1cc(Nc2nccnc2-c2noc(=O)[nH]2)ccc1C(F)(F)F [Example 33, 3-[3-[3-amino-4-(trifluoromethyl)anilino]pyrazin-2-yl]-4H-1,2,4-oxadiazol-5-one]
2120	0.4	Nc1cc(C(F)(F)F)ccc1Nc1nccnc1-c1noc(=O)[nH]1 [Example 34, 3-[3-[2-amino-4-(trifluoromethyl)anilino]pyrazin-2-yl]-4H-1,2,4-oxadiazol-5-one]
